Biological target: BfpR-His6 (Francisella tularensis, UniProt A0Q7V5)
Conditions: 5 uM protein (printed 'Five micrometers'), 2X SYPRO Orange; heated to 95 °C

Sequence of BfpR-His6 (A0Q7V5 1-229): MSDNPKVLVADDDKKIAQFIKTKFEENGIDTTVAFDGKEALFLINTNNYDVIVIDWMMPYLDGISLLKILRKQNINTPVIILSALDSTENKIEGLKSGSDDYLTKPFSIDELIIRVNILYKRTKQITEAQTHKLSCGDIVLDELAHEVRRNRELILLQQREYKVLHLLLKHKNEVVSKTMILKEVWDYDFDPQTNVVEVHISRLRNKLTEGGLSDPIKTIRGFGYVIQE

Structure (SMILES): COc1ccc(O)c2ccccc12 [walrycin A, 4-methoxy-1-naphthol]
- thermal shift: a protein population not seen in the presence of the control compounds appears

From PMC7082314 (Frontiers in Cellular and Infection Microbiology, 2020)
